Source: US6583180B2, “Glucocorticoid receptor modulators” (Abbott Laboratories, priority 2001, dated 2003)
pIC50: −log10 of the molar value.

How the values were obtained:
[1] = target: T1, Human glucocorticoid receptors (Homo sapiens, UniProt P04150); assay: Radioligand filter binding assay, displacement of 3[H]-dexamethasone from hGR; details: read-out: GR Binding (% Inhibition at 1.7 μM)
T1 construct: made in house; host or cells: Sf9 insect cells, recombinant baculovirus (BAC-TO-BAC)
T1 sequence (P04150 1-777): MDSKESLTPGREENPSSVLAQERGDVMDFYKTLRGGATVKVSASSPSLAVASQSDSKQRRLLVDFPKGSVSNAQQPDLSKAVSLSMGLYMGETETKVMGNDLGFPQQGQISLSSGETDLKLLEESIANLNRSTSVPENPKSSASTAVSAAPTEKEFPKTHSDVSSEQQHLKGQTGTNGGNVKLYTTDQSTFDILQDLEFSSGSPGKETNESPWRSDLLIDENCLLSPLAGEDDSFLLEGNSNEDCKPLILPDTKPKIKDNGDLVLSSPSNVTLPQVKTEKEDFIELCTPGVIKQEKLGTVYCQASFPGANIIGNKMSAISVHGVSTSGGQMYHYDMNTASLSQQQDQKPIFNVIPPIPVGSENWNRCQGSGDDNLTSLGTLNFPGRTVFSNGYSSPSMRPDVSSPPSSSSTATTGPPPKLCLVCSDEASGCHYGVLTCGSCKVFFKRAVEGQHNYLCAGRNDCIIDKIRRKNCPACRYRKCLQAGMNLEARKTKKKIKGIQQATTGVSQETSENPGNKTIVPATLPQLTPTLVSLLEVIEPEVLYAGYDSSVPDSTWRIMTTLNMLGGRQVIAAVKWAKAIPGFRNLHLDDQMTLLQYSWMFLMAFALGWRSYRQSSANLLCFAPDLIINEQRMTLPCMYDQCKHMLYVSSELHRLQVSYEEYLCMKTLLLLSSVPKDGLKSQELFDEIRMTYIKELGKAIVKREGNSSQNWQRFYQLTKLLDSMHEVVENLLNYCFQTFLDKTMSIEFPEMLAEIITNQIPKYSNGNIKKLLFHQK
How it was run: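 Recombinant hGR extract from baculovirus-infected Sf9 cells (final ~1 nM receptor) incubated with ³H-dexamethasone and test compound dilutions in duplicate, EDTA/phosphate pH 8 buffer with MTG, overnight (15-20 h) at +4° C. Bound label collected on PEI-treated GF/B filters and scintillation-counted; IC50 from four-parameter fit of corrected cpm.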

[2] = target: T2, progesterone receptor (PR) (Homo sapiens, UniProt P06401); assay: Radioligand binding assay for progesterone receptor (similar protocol);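 note: radioligand binding measured with cytosol preparations containing the human progesterone receptor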
T2 sequence (P06401 1-933): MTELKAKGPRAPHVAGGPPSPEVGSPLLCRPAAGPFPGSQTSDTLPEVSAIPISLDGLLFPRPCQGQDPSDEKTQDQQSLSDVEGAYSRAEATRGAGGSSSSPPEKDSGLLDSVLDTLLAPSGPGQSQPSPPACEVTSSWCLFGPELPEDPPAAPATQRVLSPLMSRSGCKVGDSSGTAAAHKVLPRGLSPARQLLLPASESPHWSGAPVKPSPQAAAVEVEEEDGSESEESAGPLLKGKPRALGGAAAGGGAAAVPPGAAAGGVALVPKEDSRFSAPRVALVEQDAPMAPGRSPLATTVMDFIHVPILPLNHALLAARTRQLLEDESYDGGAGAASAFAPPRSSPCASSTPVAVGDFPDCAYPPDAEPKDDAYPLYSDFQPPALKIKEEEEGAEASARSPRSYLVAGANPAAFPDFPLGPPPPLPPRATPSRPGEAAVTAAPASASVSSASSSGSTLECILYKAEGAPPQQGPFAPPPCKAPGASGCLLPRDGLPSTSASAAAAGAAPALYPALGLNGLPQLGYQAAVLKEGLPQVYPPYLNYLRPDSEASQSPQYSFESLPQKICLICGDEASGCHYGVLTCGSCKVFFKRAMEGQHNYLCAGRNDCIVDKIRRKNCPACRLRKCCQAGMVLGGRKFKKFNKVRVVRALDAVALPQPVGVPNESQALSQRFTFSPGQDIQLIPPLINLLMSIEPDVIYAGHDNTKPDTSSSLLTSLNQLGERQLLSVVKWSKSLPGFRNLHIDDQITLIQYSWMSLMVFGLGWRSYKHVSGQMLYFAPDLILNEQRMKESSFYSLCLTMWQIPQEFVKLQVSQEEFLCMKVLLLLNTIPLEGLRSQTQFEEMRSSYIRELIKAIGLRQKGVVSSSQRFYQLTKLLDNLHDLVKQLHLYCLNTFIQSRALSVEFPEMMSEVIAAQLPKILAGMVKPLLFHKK
Source text: Methods for Radiolipand Binding Studies with Human Glucocorticoid and Progesterone Receptor Cytosol

inhibition at 1.7 µM [1] | pIC50 [2] | Structure (SMILES)
88.1% | 6.22 | Cc1c(NS(C)(=O)=O)cccc1N(Cc1ccccc1Br)Cc1ccccc1Br [Example 1, N-{3-[bis(2-bromobenzyl)amino]-2-methylphenyl}methanesulfonamide]
 | 5.39 | Cc1c(NS(C)(=O)=O)cccc1N(Cc1ccccc1)Cc1ccc(F)cc1 [Example 9, N-{3-[benzyl(4-fluorobenzyl)amino]-2-methylphenyl}methanesulfonamide]
 | 5.64 | Cc1c(NS(C)(=O)=O)cccc1N(Cc1ccccc1)Cc1ccc(F)cc1F [Example 10, N-{3-[benzyl(2,4-difluorobenzyl)amino]-2-methylphenyl}methanesulfonamide]
 | 5.73 | Cc1c(NS(C)(=O)=O)cccc1N(Cc1ccccc1)Cc1ccc(Br)cc1 [Example 13, N-{3-[benzyl(4-bromobenzyl)amino]-2-methylphenyl}methanesulfonamide]
84.2% | 6.37 | C=CCOc1ccc(CN(Cc2ccc(F)cc2F)c2cccc(NS(C)(=O)=O)c2C)cc1 [Example 20, N-{3-[[4-(allyloxy)benzyl](2,4-difluorobenzyl)amino]-2-methylphenyl}methanesulfonamide]
 | 5.83 | COc1ccc(CN(Cc2ccc(F)cc2F)c2cccc(NS(C)(=O)=O)c2C)cc1 [Example 22, N-{3-[(2,4-difluorobenzyl)(4-methoxybenzyl)amino]-2-methylphenyl}methanesulfonamide]
92% | 6.04 | Cc1c(NS(C)(=O)=O)cccc1N(Cc1ccccc1F)Cc1ccc(F)cc1F [Example 23, N-{3-[(2,4-difluorobenzyl)(2-fluorobenzyl)amino]-2-methylphenyl}methanesulfonamide]
 | 5.59 | Cc1c(NS(C)(=O)=O)cccc1N(Cc1ccc(F)cc1F)Cc1ccc(F)cc1F [Example 24, N-{3-[bis(2,4-difluorobenzyl)amino]-2-methylphenyl}methanesulfonamide]
87.5% | 5.75 | Cc1c(NS(C)(=O)=O)cccc1N(Cc1ccc(F)cc1F)Cc1ccccc1C#N [Example 25, N-{3-[(2-cyanobenzyl)(2,4-difluorobenzyl)amino]-2-methylphenyl}methanesulfonamide]
 | < 5.00 | Cc1c(NS(C)(=O)=O)cccc1N(Cc1ccccc1)Cc1ccc(Cl)cc1 [Example 29, N-{3-[benzyl(4-chlorobenzyl)amino]-2-methylphenyl}methanesulfonamide]
 | 5.76 | Cc1c(NS(C)(=O)=O)cccc1N(Cc1ccccc1)Cc1ccc(Cl)cc1Cl [Example 32, N-{3-[benzyl(2,4-dichlorobenzyl)amino]-2-methylphenyl}methanesulfonamide]
92.7% | < 5.00 | Cc1c(NS(C)(=O)=O)cccc1N(Cc1ccc(OCC=Cc2ccccc2)cc1)Cc1ccc(F)cc1F [Example 33, N-{3-[(2,4-difluorobenzyl)(4-{[3-phenyl-2-propenyl]oxy}benzyl)amino]-2-methylphenyl}methanesulfonamide]
90% | < 5.00 | Cc1c(NS(C)(=O)=O)cccc1N(Cc1ccc(OCc2ccccc2)cc1)Cc1ccc(F)cc1F [Example 34, N-{3-[[4-(benzyloxy)benzyl](2,4-difluorobenzyl)amino]-2-methylphenyl}methanesulfonamide]
 | < 5.00 | Cc1c(NS(C)(=O)=O)cccc1N(Cc1ccccc1)Cc1ccc(OCC=CBr)cc1 [Example 35, N-{3-[benzyl(4-{[3-bromo-2-propenyl]oxy}benzyl)amino]-2-methylphenyl}methanesulfonamide]
85.5% | 5.92 | COc1ccc(NS(C)(=O)=O)cc1N(Cc1ccccc1Br)Cc1ccccc1Br [Example 36, N-{3-[bis(2-bromobenzyl)amino]-4-methoxyphenyl}methanesulfonamide]
 | 6.72 | Cc1c(NS(C)(=O)=O)cccc1N(Cc1ccc(Oc2ccc(CCC(=O)O)cc2)cc1)Cc1ccc(F)cc1F [Example 50, N-{3-[(4-(4-(2-carboxyethyl)phenoxy)benzyl)(2,4-difluorobenzyl)amino]-2-methylphenyl}methanesulfonamide]
 | 6.61 | Cc1c(NS(C)(=O)=O)cccc1N(Cc1ccccc1)Cc1ccc(Oc2cccc(OCC(=O)O)c2)cc1 [Example 62, (3-{4-[(benzyl{2-methyl-3-[(methylsulfonyl)amino]phenyl}amino)methyl]phenoxy}phenoxy)acetic acid]
 | 6.67 | Cc1c(NS(C)(=O)=O)cccc1N(Cc1ccc(Oc2ccc(CCC(=O)O)cc2)cc1)Cc1ccc(Cl)cc1F [Example 86, 3-(4-{4-[((4-chloro-2-fluorobenzyl){2-methyl-3-[(methylsulfonyl)amino]phenyl}amino)methyl]phenoxy}phenyl)propanoic acid]
 | < 6.00 | Cc1c(NS(C)(=O)=O)cccc1N(Cc1ccccc1)Cc1ccc(Oc2ccc(C(=O)O)cc2)cc1 [Example 96, 4-{4-[(benzyl{2-methyl-3-[(methylsulfonyl)amino]phenyl}amino)methyl]phenoxy}benzoic acid]
 | 6.11 | COCOc1ccc(Oc2ccc(CN(Cc3ccccc3)c3cccc(NS(C)(=O)=O)c3C)cc2)cc1 [Example 97, N-[3-(benzyl{4-[4-(methoxymethoxy)phenoxy]benzyl}amino)-2-methylphenyl]methanesulfonamide]
 | 7.11 | Cc1c(NS(C)(=O)=O)cccc1N(Cc1ccc(Br)cc1)Cc1ccc(Oc2ccccc2)cc1 [Example 103, N-{3-[(4-bromobenzyl)(4-phenoxybenzyl)amino]-2-methylphenyl}methanesulfonamide]
 | 6.13 | Cc1c(NS(C)(=O)=O)cccc1N(Cc1ccccc1)Cc1ccc(Oc2ccc(CCCC(=O)NCC(=O)O)cc2)cc1 [Example 107, N-[4-(4-{4-[(benzyl{2-methyl-3-[(methylsulfonyl)amino]phenyl}amino)methyl]phenoxy}phenyl)butanoyl]glycine]
 | 6.78 | Cc1c(NS(C)(=O)=O)cccc1N(Cc1ccccc1)Cc1ccc(Oc2cccc(O)c2)cc1 [Example 115, N-(3-{benzyl[4-(3-hydroxyphenoxy)benzyl]amino}-2-methylphenyl)methanesulfonamide]
 | 5.89 | CSc1ccc(CN(Cc2ccc(Cl)cc2F)c2cccc(NS(C)(=O)=O)c2C)cc1 [Example 144, N-(3-{(4-chloro-2-fluorobenzyl)[4-(methylthio)benzyl]amino}-2-methylphenyl)methanesulfonamide]
 | 6.45 | Cc1c(NS(C)(=O)=O)cccc1N(Cc1ccccc1F)Cc1ccc(Cl)cc1F [Example 145, N-{3-[(4-chloro-2-fluorobenzyl)(2-fluorobenzyl)amino]-2-methylphenyl}methanesulfonamide]
 | 8.05 | Cc1c(NS(C)(=O)=O)cccc1N(Cc1ccc(Oc2ccc(F)c(OCC(=O)O)c2)cc1)Cc1ccc(F)cc1F [Example 305, (5-(4-(((2,4-difluorobenzyl)(2-methyl-3-((methylsulfonyl)amino)phenyl)amino)methyl)phenoxy)-2-fluorophenoxy)acetic acid]
96.4% |  | Cc1c(NS(C)(=O)=O)cccc1N(Cc1ccc(Oc2ccc(Cl)c(O[C@H](C)C(=O)O)c2)cc1)Cc1ccc(F)cc1F [Example 321, (2R)-2-(2-chloro-5-(4-(((2,4-difluorobenzyl)(2-methyl-3-((methylsulfonyl)amino)phenyl)amino)methyl)phenoxy)phenoxy)propanoic acid]
